Experimental data as given in US10709724B2, “Methods of treating mitochondrial dysfunction” (Ecole Polytechnique Federale de Lausanne (EPFL), priority 2011, dated 2020).
Entries after “also recorded” stand apart in the source; their conditions may differ.

Experiments:
C. elegans [1] = experiment: NAD measurement by HPLC in worms; type: in vivo; settings: day 4 of adulthood
Procedure: Worm Respiration Assays Oxygen consumption was measured using the Seahorse XF24 equipment (Seahorse Bioscience Inc., North Billerica, Mass.) as described in Yamamoto et al. Typically, 200 animals per conditions were recovered from NGM plates with M9 medium, washed three times in 2 mLM9 to eliminate residual bacteria, and resuspended in 500 μL M9 medium. Worms were transferred in 24-well standard Seahorse plates (#100777-004) (50 worms per well) and oxygen consumption was measured 6 times. Respiration rates were normalized to the number of worms in each individual well. NAD measurement by HPLC For NAD+ quantification, approximately 1000 worms were collected in M9 buffer, washed five times to remove residual bacteria and flash-frozen in liquid nitrogen and stored at −80° C. until analysis. Extraction was started by adding 250 μl of 1.6M perchloric acid on frozen samples, followed by extensive homogenization in a Qiagen tissuelyser, and centrifugation at 20.000 g for 15 min. The supernatant was recovered and neutralized with a 3M potassium carbonate solution. […]

C. elegans [2] = experiment: Worm respiration assay (Seahorse XF24); type: in vivo; settings: day 3 adult worms
Procedure: Worm Respiration Assays Oxygen consumption was measured using the Seahorse XF24 equipment (Seahorse Bioscience Inc., North Billerica, Mass.) as described in Yamamoto et al. Typically, 200 animals per conditions were recovered from NGM plates with M9 medium, washed three times in 2 mLM9 to eliminate residual bacteria, and resuspended in 500 μL M9 medium. Worms were transferred in 24-well standard Seahorse plates (#100777-004) (50 worms per well) and oxygen consumption was measured 6 times. Respiration rates were normalized to the number of worms in each individual well. NAD measurement by HPLC For NAD+ quantification, approximately 1000 worms were collected in M9 buffer, washed five times to remove residual bacteria and flash-frozen in liquid nitrogen and stored at −80° C. until analysis. Extraction was started by adding 250 μl of 1.6M perchloric acid on frozen samples, followed by extensive homogenization in a Qiagen tissuelyser, and centrifugation at 20.000 g for 15 min. The supernatant was recovered and neutralized with a 3M potassium carbonate solution. After centrifugation, 100 μl of supernatant was filtered and used for NAD measurement using an HPLC system (Agilent) with a Supelco LC-18-T column (Sigma), as described in Yoshino et al. (Yoshino, K. F. Mills, M. J. Yoon, S. Imai, Nicotinamide Mononucleotide, a Key NAD(+) Intermediate, Treats the Pathophysiology of Diet- and Age-Induced Diabetes in Mice. Cell Metab 14, 528 (2011)).

SIRT3 = SIRT3 activity (Ndufa9, SOD2 acetylation) in NR-treated HEK293T cells; type: cell-based, human; settings: 0.5 mM, 24 hrs
Procedure: Immunoprecipitation, SDS-PAGE, Western Blotting. Cells were lysed in lysis buffer (50 mM Tris, […], EDTA 1 mM, NP40 1%, nicotinamide 5 mM, Na-butyrate 1 in M, protease inhibitors pH7.4). Proteins were separated by SDS-PAGE and transferred onto nitrocellulose membranes. The origin of the primary and secondary antibodies used can be found as supplemental experimental procedures. Reactions were developed by enhanced chemiluminescence (Amersham, Little Chalfont, UK), PGC-1α, FOXO1 and Ndufa9 acetylation levels were analyzed by immunoprecipitation from cellular or nuclear lysates of tissues with anti-PGC-1α (Millipore), anti-FOXO1 (Cell Signaling, Danvers, Mass., USA) and anti-Ndufa9 (Abcam) antibody followed by Western blot using an acetyl-lysine antibody (Cell Signaling) that was normalized to total PGC-1a/FOXO1/Ndufa9 levels (Lagouge et al., 2006; Rodgers et al., 2005). In HEK293T cells HA-tagged PGC-1α was overexpressed and was immunoprecipitated using an anti-HA. In C2C12 myotubes, FLAG-HA tagged PGC-1α was introduced through adenoviral delivery 2 days before treatments, then IP was performed using anti-FLAG antibody and samples were processed as described. All blots were quantified by densitometry using ImageJ software. Poly(ADP-Ribose) detection was performed as previously described with slight modifications (Bai et al., PARP-1 inhibition increases mitochondrial metabolism through SIRT1 activation. Cell Metab 13, 461-468. (2011)) Briefly, PAR was detected by using a monoclonal anti-PAR antibody (Alexis, Lausanne Switzerland) by Western blotting of total protein lysates, using either […] of total worm protein lysates, […] of liver protein lysate or 200 g of muscle total protein extracts. PGC-1 acetylation was determined using PGC-1 immunoprecipitates from 2 mg of protein extracts, as described in Canto et al. (Canto et al., AMPK regulates energy expenditure by modulating NAD+ metabolism and SIRT1 activity. Nature 458, 1056 (2009)). […]

[3] = test system: AMP-activated protein kinase (AMPK); experiment: AMPK activity (ACC phosphorylation) in C2C12 myotubes; type: cell-based; settings: 24 hrs
Procedure: Immunoprecipitation, SDS-PAGE, Western Blotting. Cells were lysed in lysis buffer (50 mM Tris, […], EDTA 1 mM, NP40 1%, nicotinamide 5 mM, Na-butyrate 1 in M, protease inhibitors pH7.4). Proteins were separated by SDS-PAGE and transferred onto nitrocellulose membranes. The origin of the primary and secondary antibodies used can be found as supplemental experimental procedures. Reactions were developed by enhanced chemiluminescence (Amersham, Little Chalfont, UK), PGC-1α, FOXO1 and Ndufa9 acetylation levels were analyzed by immunoprecipitation from cellular or nuclear lysates of tissues with anti-PGC-1α (Millipore), anti-FOXO1 (Cell Signaling, Danvers, Mass., USA) and anti-Ndufa9 (Abcam) antibody followed by Western blot using an acetyl-lysine antibody (Cell Signaling) that was normalized to total PGC-1a/FOXO1/Ndufa9 levels (Lagouge et al., 2006; Rodgers et al., 2005). In HEK293T cells HA-tagged PGC-1α was overexpressed and was immunoprecipitated using an anti-HA. […] All blots were quantified by densitometry using ImageJ software. […] PGC-1 acetylation was determined using PGC-1 immunoprecipitates from 2 mg of protein extracts, as described in Canto et al. (Canto et al., AMPK regulates energy expenditure by modulating NAD+ metabolism and SIRT1 activity. Nature 458, 1056 (2009)).

PDK4 and UCP-3 promoters = experiment: ChIP of PGC-1α promoter occupancy in C2C12 myotubes; type: cell-based; settings: 1 μM, 48 h
Procedure: Chromatin Immunoprecipitation (ChIP). ChIP was performed according to (Bai et al., 2007). FLAG-HA-PGC-1 (Rodgers et al., 2005) was introduced by adenoviral transfer into C2C12 myotubes after 48 h of differentiation and cells were cultured for an additional 2 days. […] Thereafter ChIP was performed using anti-FLAG (Sigma) and anti-TNF-R1 (Santa Cruz) as described (Bai et al., 2007). Pelleted DNA was quantified by qPCR using the primers against PDK4 and UCP-3 promoters flanking the nuclear receptor site (Table 3 and 6). The results were normalized for the signal of the respective inputs (vehicle/PJ34-treated) and were expressed as a percentage. The signal of anti-TNF-R1 (non-specific antibody) was subtracted from the anti-FLAG signal (specific) and the specific signal was plotted. Primers for ChIP are summarized in Supplementary Table 3 and 6.

Row | Structure (SMILES) | NAD+ levels in C. elegans (C. elegans [1]) | oxygen consumption (respiration) (C. elegans [2]) | SOD2 activity (SIRT3) | acetylation status of Ndufa9 (SIRT3) | acetylation status of SOD2 (SIRT3) | AMPK activity (ACC phosphorylation levels) [3] | PGC-1 binding to the UCP3 promoter (PDK4 and UCP-3 promoters) | PGC-1α recruitment to the PDK4 promoter (PDK4 and UCP-3 promoters)
1 | NC(=O)c1ccc[n+]([C@@H]2O[C@H](CO)[C@@H](O)[C@H]2O)c1 [NR, nicotinamide riboside] | increased NAD+ levels; also recorded: increases | increased respiration; also recorded: Oxygen consumption was increased | enhanced SOD2 activity | reduced the acetylation status | reduced the acetylation status | – | – | –
2 | CN(C)CC(=O)Nc1ccc2[nH]c(=O)c3ccccc3c2c1 [PJ34] | – | – | – | – | – | does not alter AMPK activity | not regulated through the binding of PGC-1 to its promoter | increased PGC-1α recruitment to target-genes
